Publication PMC9515143, “Phosphorylation of Jhd2 by the Ras-cAMP-PKA(Tpk2) pathway regulates histone modifications and autophagy” (Nature Communications, 2022)

Key:
[1] = test system: COMPASS (Spp1-CBP); test: In vitro histone methyltransferase (HMT) assay with purified COMPASS; type: biochemical, budding yeast (Saccharomyces cerevisiae); settings: COMPASS (Spp1-CBP) purified from cells grown in 0.05% glucose
Method: The HMT reactions were carried out using purified COMPASS (Spp1-CBP) and 15 μg recombinant H3 in 50 μl reaction buffer (50 mM Tris pH 8.5, 20 mM KCl, 10 mM MgCl2, 10 mM 2-mercaptoethanol, 100 μM SAM, 250 mM sucrose, protease inhibitor cocktail) at 30 °C for 0–2 hr. Reactions were quenched by adding 5 × SDS loading buffer and boiled at 95°C for 5 min. Protein was separated on a 10–20% SDS-PAGE gel followed by Western blots with the antibodies indicated.
Supplementary Fi g . […] WT (a) and H2B-F LA G cel ls (b) wer e grown in YPD medium until OD600 of 0.7.
Cells were th en tr eat ed with YP medium supplement ed with differen t concentrations of glucos e for 0.5 hr. C ells were h ar vested an d the ex tract ed histones w er e anal yz ed by Western blots with indicat ed ant ibodies. To d et ect H2B monoubiquitination, H2B-F LAG strain w as used and d et ect ed with anti -F LAG ant ibody. Th e upper bands ar e monoubiquitinat ed H2B-F LAG. c E ff e c t of gl ucose on histone modifications in WT and ubp8∆ ubp10∆ mutant. WT and ubp8∆ ubp10∆ mut ant w er e gro wn in YPD medium unti l OD600 of 0.7. Cells wer e th en treated with YP medium supplem ent ed with di fferent con cen tr ations of gl u cos e fo r 0.5 hr. d Gluco se has no effect on the activit y of C O M PA S S . Spp1-TA P cells wer e grown in YPD medium until OD600 of 1.5. Cells were h arv est ed and then […]

[2] = test system: Bcy1; test: Dissociation of Tpk1, Tpk2, Tpk3 from Bcy1 after glucose, Co-IP; type: cell-based, budding yeast (Saccharomyces cerevisiae); settings: 2% glucose, 0-30 min
Method: Yeast whole cell extract was prepared by vortexing with glass beads and then digested with Micrococcal Nuclease (MNase). Pre-cleared cell lysate was incubated with anti-FLAG M2 agarose for 1 hr at 4 °C. The beads were washed three times with IP washing buffer (40 mM HEPES-KOH, pH7.5, 0.1% NP-40, 10% glycerol, 1 mM PMSF, 350 mM NaCl, 2 μg/ml leupeptin, 1 μg/ml pepstatin A) and boiled in SDS-sample buffer for 5 min. Supernatants from the boiled beads were subjected to SDS-PAGE and Western blots.
Supplementary Fi g . 11 Analysis of PKA subunits subcellular localization, expression and Bcy1 dissociation kinetics. a Subcellul ar localiz ation of Tpk1, Tpk2 and Tp k3. Cells (Tpk1-FLAG, Tpk2- FLAG, Tpk3- F LA G) wer e grown in YP+2% glucos e medium. Th e localization of Tpk1, Tpk2 and Tp k3 was detect ed with ant i-F LAG antibod y. […] Bc y1 was immunoprecipitated from cells (Tpk1- FLAG/Bcy1- M yc, Tpk2- FLAG/Bcy1-M yc, Tpk3- FLAG/Bcy1- M yc) with anti-M yc antibody.
For Supplem ent ar y Fi g. 11 b, dat a r ep res ent m ean s ± SEM; n=3 independent ex perim ents. Tw o -sid ed t-t ests were us ed for statistical […]
(1 picture or pasted object on this page, not shown here)

[3] = test system: H3K79me3; test: ChIP-qPCR of H3K79me3/H3 (rebuttal); type: cell-based, budding yeast (Saccharomyces cerevisiae); settings: 0.05% versus 2% glucose
[4] = test system: H3K4me3; test: Western blot of H3K4me3 in yeast cells treated with glucose, 2-DG, FBP or pyruvate; type: cell-based, budding yeast (Saccharomyces cerevisiae); settings: WT cells, YP medium with different glucose concentrations, 0.5 hr
Text: To examine the effect of glucose on histone modifications, we grew yeast cells in 2% glucose-containing medium (YPD) until log phase. Cells were collected and then grown in the medium containing different concentrations of glucose for 0.5 hr.
PKA is activated by cyclic AMP (cAMP), which binds to its inhibitory subunit, Bcy1 and causes its dissociation (Fig. 1g). We thus examined H3K4me3 in deletion mutants of cAMP phosphodiesterases PDE1 and PDE2, which encode enzymes to hydrolyze cAMP and inactivate PKA[39],[40]. […] To test whether the Ras-cAMP-PKA pathway mediates glucose-induced H3K4me3, we examined H3K4me3 in ras1Δ and ras2Δ mutants. […] Ras1/2 can be activated by glycolysis-derived fructose-1,6-biphosphate (FBP) via Cdc25[6] (Fig. 1g).
To examine the effect of glucose on histone modifications, yeast cells were grown in 2% glucose-containing YPD (Yeast Extract Peptone Dextrose) medium until OD600 of 0.7–1.0. Cells were then collected, washed and resuspended in YP medium for 3 hr followed by treatment with different concentrations of glucose for 0.5 hr. For 1NM-PP1 (MCE, HY-13804) treatment, cells were grown in 2% YPD until OD600 of 0.7–1.0. Cells were then treated with 25 μM 1NM-PP1 for 0.5 hr. For FBP and pyruvate treatment, cells were pre-treated with Zymolase (Mpbio, 08320921) to increase the permeability. In brief, cells were grown in YPD medium until OD600 of 0.7–1.0, centrifuged and resuspended in 1 ml SB buffer (100 mM Sorbitol, 20 mM Tris pH 7.4). 10 μl Zymolase was then added and incubated at 30 °C for 15 min. The spheroplasts were washed and cultured in YPD medium containing different concentrations of FBP and pyruvate for 3 hr.
Cells were grown in 5 ml YPD or selective medium until OD600 of 0.7–1.0. Cells were harvested and lysed in alkaline lysis buffer (2 M NaOH, 8% 2-mercaptoethanol). After centrifugation, the protein pellet was resuspended in 150 μl 2×SDS-sample buffer. Protein samples were separated by 8–15% SDS-PAGE and transferred to PVDF membrane. The blots were probed with primary antibodies followed by incubation with horseradish peroxidase-labelled IgG secondary antibodies. The protein bands were visualized using the ECL Chemiluminescence Detection Kit (Bio-Rad, 170–5061) and quantified with Image J software (v.1.8.0).

OC[C@H]1OC(O)[C@H](O)[C@@H](O)[C@@H]1O (stereo partly shown) [glucose]
HMT activity of COMPASS [1]: did not affect the HMT activity of COMPASS
dissociation of Tpk2 from Bcy1 compared with Tpk1 and Tpk3 [2]: Tpk2 dissociated with Bcy1 with a faster kinetics than Tpk1 and Tpk3
H3K79me3 occupancy at PAU8, DRS2 and ATG5 [3]: glucose significantly increased H3K79me3 at H2Bub-dependent genes (PAU8, DRS2)
H3K4me3 level [4]: induced H3K4me3 in a dose-dependent manner
